Measured values from patent US6743913B2, “Pyrrolothiazine and pyrrolothiazepine compounds having serotonin-2 receptor antagonistic and α-1-blocking action” (Daiichi Suntory Pharma Co., Ltd., priority 1997, dated 2004).

Tests used:
serotonin-2 receptors = assay: Anti-serotonin (5-HT) action: 5-HT-induced contraction of isolated superior mesenteric artery; conditions: contraction by 10^−5 M 5-HT taken as 100%, guinea pig superior mesenteric artery
Experimental: (2) Anti-serotonin (5-HT) Action
A preparation cut in a helical form was suspended under resting tension of 0.3 g in a Magnus cylinder filled with the Tyrode solution which had been aerated with a gas mixture of 95% O2 and 5% CO2 and maintained at 37° C. Using an isometric transducer (“UL-10”, manufactured by SHINKOH K.K.) and a pressure preamplifier (“DSA-605A”, manufactured by SHINKOH K.K.), variations in tension were measured. The isometric tensions were recorded on a pen-writing recorder (“VP-6537A”, manufactured by NATIONAL K.K.). Taking the contraction induced by 10^−5 M serotonin (5-HT) as 100%, the percent contractions by 10^−5 M 5-HT in the presence of each test drug at 10^−7 M and 10^−6 M were determined as anti-5-HT action.

α1 receptors = assay: Anti-α1 action: norepinephrine-induced tonic contraction of isolated thoracic aorta; conditions: tonic contraction by 10^−5 M norepinephrine taken as 100%, guinea pig thoracic aorta
Experimental: The thoracic aorta of each Hartley male guinea pig (body weight: 300-500 g) was excised. A preparation cut in a helical form was suspended under 1 g load in a Magnus cylinder filled with the Tyrode solution which had been aerated with a gas mixture of 95% O2 and 5% CO2 and maintained at 37° C. Using an isometric transducer (“TB-612J”, manufactured by Nihon Kohden Corporation) and a pressure preamplifier (“AP-620G”, manufactured by Nihon Kohden Corporation), variations in tension were measured. The isometric tensions were recorded on a thermal pen-writing recorder (“WT-647G”, manufactured by Nihon Kohden Corporation). Taking the tonic contraction induced by 10^−5 M norepinephrine (NE) as 100%, the percent contractions upon addition of each test drug at 10^−8 M and 10^−7 M were determined and recorded as α1 action.

SMILES	Anti 5-HT action (% of Control) (serotonin-2 receptors; test drug 10^−6 M)	Anti 5-HT action (% of Control) (serotonin-2 receptors; test drug 10^−7 M)	Anti α1 action (% of Control) (α1 receptors; test drug 10^−7 M)	Anti α1 action (% of Control) (α1 receptors; test drug 10^−8 M)
CN1CCC(=NO)c2c(ccn2CCCCN2CCC(C(=O)c3ccc(F)cc3)CC2)S1(=O)=O [Compound 29, 6-[4-[4-(4-fluorobenzoyl)piperidino]-butyl]-5-hydroxyimino-2-methyl-3,4,5,6-tetrahydro-2H-pyrrolo[2,3-f][1,2]thiazepine 1,1-dioxide]	32.5 % of Control	79.0 % of Control	33.4 % of Control	83.1 % of Control
CN1CC(=NO)c2c(ccn2CCCCN2CCC(C(=O)c3ccc(F)cc3)CC2)S1(=O)=O [Compound 28, 5-[4-[4-(4-fluorobenzoyl)piperidino]-butyl]-4-hydroxyimino-2-methyl-2,3,4,5-tetrahydropyrrolo[2,3-e][1,2]thiazine 1,1-dioxide]	30.2 % of Control	73.5 % of Control	45.8 % of Control	80.0 % of Control
CN1CC(=O)c2c(ccn2CCCCN2CCC(C(=O)c3ccc(F)cc3)CC2)S1(=O)=O [Compound 22, 5-[4-[4-(4-fluorobenzoyl)piperidino]butyl]-2-methyl-2,3,4,5-tetrahydropyrrolo[2,3-e][1,2]thiazin-4-one 1,1-dioxide]	41.1 % of Control	80.4 % of Control	43.2 % of Control	66.6 % of Control
